Results from PubChem BioAssay AID192 (DTP/NCI, 2004).
Several values for one entry are separate records, joined by “and”; a condition that tells them apart may be missing. Equal entries are not always repeated. Inconclusive results and toxic doses are left out. How the source made its calls: active means survival T/C of 150% or more; inactive means T/C below 125% in these data.

Test system: BDF1 mice, B16 melanoma ip, median survival T/C
Assay: NCI In Vivo Anticancer Drug Screen. Data for tumor model B16 Melanoma (intraperitoneal) in B6D2F1 (BDF1) mice
Settings: endpoint: median survival time, higher = longer survival
Summary of the method: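 The ratio T/C compares compound-treated mice with vehicle-treated controls, using survival or tumor size as the endpoint in a transplantable tumor model.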

[1] = dose: 12.5 mg/kg/injection, schedule: Q01DX009 (ip), vehicle: saline
[2] = dose: 25.0 mg/kg/injection, schedule: Q01DX009 (ip), vehicle: saline
[3] = dose: 50.0 mg/kg/injection, schedule: Q01DX009 (ip), vehicle: saline
[4] = dose: 1.56 mg/kg/injection, schedule: Q01DX009 (ip), vehicle: saline with Tween-80
[5] = dose: 6.25 mg/kg/injection, schedule: Q01DX009 (ip), vehicle: saline with Tween-80
[6] = dose: 12.5 mg/kg/injection, schedule: Q01DX009 (ip), vehicle: saline with Tween-80
[7] = dose: 100.0 mg/kg/injection, schedule: Q01DX009 (ip), vehicle: saline with Tween-80
[8] = dose: 200.0 mg/kg/injection, schedule: Q01DX009 (ip), vehicle: saline with Tween-80
[9] = dose: 400.0 mg/kg/injection, schedule: Q01DX009 (ip), vehicle: saline with Tween-80
[10] = dose: 100.0 mg/kg/injection, schedule: Q01DX009 (ip), vehicle: Klucel (hydroxypropylcellulose) (HPC)
[11] = dose: 200.0 mg/kg/injection, schedule: Q01DX009 (ip), vehicle: Klucel (hydroxypropylcellulose) (HPC)

Measured: T/C

N#CNN=Nc1cc(Cl)c(Cl)c(Cl)c1
inactive: [1] 120 % of control | [2] 111 % of control

CC1NCCOC1c1ccccc1 (stereo not drawn)
inactive: dose: 3.12 mg/kg/injection, schedule: Q01DX009 (ip), vehicle: saline 100 % of control | dose: 6.25 mg/kg/injection, schedule: Q01DX009 (ip), vehicle: saline 97 % of control | [1] 104 % of control | [2] 90 % of control and 124 % of control | [3] 90 % of control and 113 % of control | dose: 100.0 mg/kg/injection, schedule: Q01DX009 (ip), vehicle: saline 111 % of control

Cc1cc(NCCCCCCCNc2cc(C)nc3cc(N)ccc23)c2ccc(N)cc2n1
inactive: dose: 0.78 mg/kg/injection, schedule: Q01DX009 (ip), vehicle: saline with Tween-80 99 % of control | [4] 100 % of control | dose: 3.12 mg/kg/injection, schedule: Q01DX009 (ip), vehicle: saline with Tween-80 113 % of control | [5] 103 % of control | [6] 100 % of control

CC1(C)CC(C)(c2ccc(O)cc2)c2ccccc2O1 (stereo not drawn)
inactive: [7] 100 % of control | [8] 86 % of control | [9] 86 % of control

COc1ccccc1N1C(N)=NC(N)=NC1(C)C
inactive: [2] 102 % of control | [3] 108 % of control

CCn1c(=O)c2[nH]c(Cl)nc2n(CC)c1=O
inactive: dose: 1.25 mg/kg/injection, schedule: Q## X032 (ip), vehicle: water 103 % of control | dose: 2.5 mg/kg/injection, schedule: Q## X032 (ip), vehicle: water 101 % of control | dose: 5.0 mg/kg/injection, schedule: Q## X032 (ip), vehicle: water 103 % of control | dose: 10.0 mg/kg/injection, schedule: Q## X032 (ip), vehicle: water 97 % of control

C1OCN2CSCC12 (stereo not drawn)
inactive: [6] 108 % of control | dose: 25.0 mg/kg/injection, schedule: Q01DX009 (ip), vehicle: saline with Tween-80 109 % of control | dose: 50.0 mg/kg/injection, schedule: Q01DX009 (ip), vehicle: saline with Tween-80 101 % of control | [7] 106 % of control

NC(=S)N/N=C/c1ccc(OC(F)(F)F)cn1
inactive: [4] 92 % of control | dose: 3.13 mg/kg/injection, schedule: Q01DX009 (ip), vehicle: saline with Tween-80 94 % of control | [5] 89 % of control | [6] 95 % of control

Cc1cccc(NC(=O)c2cccc(C(=O)Nc3cccc(C)c3C)c2)c1C
inactive: [10] 100 % of control | [11] 90 % of control | dose: 400.0 mg/kg/injection, schedule: Q01DX009 (ip), vehicle: Klucel (hydroxypropylcellulose) (HPC) 86 % of control

CCOC(=O)CCCc1c[nH]c2ccccc12
inactive: [7] 107 % of control | dose: 100.0 mg/kg/injection, schedule: Q04DX003 (ip), vehicle: saline with Tween-80 109 % of control | [8] 115 % of control | dose: 200.0 mg/kg/injection, schedule: Q04DX003 (ip), vehicle: saline with Tween-80 93 % of control | [9] 107 % of control | dose: 400.0 mg/kg/injection, schedule: Q04DX003 (ip), vehicle: saline with Tween-80 95 % of control

Cc1cccc(/C=N\OCCc2ccccc2)n1
inactive: [7] 97 % of control | [8] 93 % of control

COc1cccc2c1C(=O)c1c(O)c3c(c(O)c1C2=O)C[C@@](O)(C(C)=O)C[C@@H]3OC1CC(N2CCOCC2C#N)C(O)C(C)O1 (stereo partly drawn)
inactive: dose: 9.38 micrograms/kg/injection, schedule: Q01DX001 (ip), vehicle: distilled water + Tween-80 117 % of control | dose: 18.75 micrograms/kg/injection, schedule: Q01DX001 (ip), vehicle: water 107 % of control | dose: 75.0 micrograms/kg/injection, schedule: Q01DX001 (ip), vehicle: water 112 % of control

Cc1ccc(NC(=O)c2ccccc2C(=O)O)cc1Cl
inactive: [10] 94 % of control | [11] 94 % of control

Cc1ccc(CNc2ccc(C)cc2)cc1
inactive: [10] 100 % of control | [11] 100 % of control
